In assay [1] the test system is Botrytis cinerea. Put plainly: In vivo preventive test on Botrytis cinerea (grey mould). The settings on record: 500 ppm of active ingredient; preventive spray on gherkin or cabbage; evaluated 4 to 5 days after inoculation. As to the method: a-2. In Vivo Preventive Test on Botrytis cinerea (Grey Mould) [table] The active ingredients were made soluble and homogenized in a mixture of Dimethyl sulfoxide/Acetone//Tween® 80 and then diluted in water to the desired concentration. The young plants of gherkin or cabbage were treated by spraying the active ingredient prepared as described above. Control plants were treated only with an aqueous solution of Acetone/Dimethyl sulfoxide/Tween® 80. After 24 hours, the plants were contaminated by spraying the leaves with an aqueous suspension of Botrytis cinerea spores. The contaminated gherkin plants were incubated for 4 to 5 days at 17° C. and at 90% relative humidity. The contaminated cabbage plants were incubated for 4 to 5 days at 20° C. and at 100% relative humidity.

In assay [2] the test system is Colletotrichum lindemuthianum. Put plainly: Colletotrichum lindemuthianum in vitro cell test. The settings on record: 144 h, 20 ppm of active ingredient, liquid culture, 6 days incubation, read-out: efficacy (inhibition of fungal growth). The format is cell-based. The method, then:
(§1) a-11. Colletotrichum lindemuthianum In Vitro Cell Test [table] Fungicides were solubilized in DMSO and the solution used to prepare the required range of concentrations. The final concentration of DMSO used in the assay was ≤1%. A spore suspension of C. lindemuthianum was prepared and diluted to the desired spore density. Fungicides were evaluated for their ability to inhibit spores germination and mycelium growth in liquid culture assay. The compounds were added in the desired concentration to the culture medium with spores. After 6 days incubation, fungi-toxicity of compounds was determined by spectrometric measurement of mycelium growth. Inhibition of fungal growth was determined by comparing the absorbance values in wells containing the fungicides with the absorbance in control wells without fungicides.

For assay [3], the system named is Septoria tritici. As to the kind of experiment: In vivo preventive test on Septoria tritici (leaf spot on wheat). As to conditions: 500 ppm of active ingredient; preventive spray on wheat; evaluated 17 to 19 days after inoculation. As to the method: a-4. In Vivo Preventive Test on Septoria tritici (Leaf Spot on Wheat) [table] The active ingredients were made soluble and homogenized in a mixture of Dimethyl sulfoxide/Acetone//Tween® 80 and then diluted in water to the desired concentration. The young plants of wheat were treated by spraying the active ingredient prepared as described above. Control plants were treated only with an aqueous solution of Acetone/Dimethyl sulfoxide/Tween® 80. After 24 hours, the plants were contaminated by spraying the leaves with an aqueous suspension of Septoria tritici spores. The contaminated wheat plants were incubated for 72 hours at 17° C. and at 100% relative humidity and then for 14 to 16 days at 20° C. and at 90% relative humidity.

The next assay has as its system Ustilago avenae. Put plainly: Ustilago avenae in vitro cell test. The format is cell-based. As to conditions: 96 h, 20 ppm of active ingredient, liquid culture, 4 days of incubation, read-out: efficacy (inhibition of fungal growth). As to the method: a-10. Ustilago avenae In Vitro Cell Test [table] Fungicides were solubilized in DMSO and the solution used to prepare the required range of concentrations. The final concentration of DMSO used in the assay was ≤1%. Inoculum was prepared from a pre-culture of U. avenae grown in liquid medium and diluted to the desired optical density (OD). Fungicides were evaluated for their ability to inhibit mycelium growth in liquid culture assay. The compounds were added in the desired concentrations to culture medium containing the spore suspension. After 4 days of incubation, the fungicidal efficacy of compounds was determined by spectrometric measurement of mycelium growth. Inhibition of fungal growth was determined by comparing the absorbance values in wells containing the fungicides with the absorbance in control wells without fungicides.

The test system of assay [4] is Pyrenophora teres. Put plainly: In vivo preventive test on Pyrenophora teres (net blotch on barley). The settings on record: 500 ppm of active ingredient; preventive spray on barley; evaluated 10 days after inoculation. The method, then:
a-3. In Vivo Preventive Test on Pyrenophora teres (Net Blotch on Barley) [table] The active ingredients were made soluble and homogenized in a mixture of Dimethyl sulfoxide/Acetone//Tween® 80 and then diluted in water to the desired concentration. The young plants of barley were treated by spraying the active ingredient prepared as described above. Control plants were treated only with an aqueous solution of Acetone/Dimethyl sulfoxide/Tween® 80. After 24 hours, the plants were contaminated by spraying the leaves with an aqueous suspension of Pyrenophora teres spores.

Assay [5] deals with Pyrenophora teres. Put plainly: Pyrenophora teres in vitro cell test. The format is cell-based. As to conditions: 144 h, 20 ppm of active ingredient, liquid culture, 6 days incubation, read-out: efficacy (inhibition of fungal growth). The method, then: as §1, with “a-12. Pyrenophora teres In” for “a-11. Colletotrichum lindemuthianum In”, “of P. teres” for “of C. lindemuthianum”, “inhibit spore” for “inhibit spores”

Assay [6] deals with Botrytis cinerea. As to the kind of experiment: Botrytis cinerea in vitro cell test. The format is cell-based. The settings on record: 144 h, 20 ppm of active ingredient, liquid culture, 6 days incubation, read-out: efficacy (inhibition of fungal growth). As to the method: as §1, with “a-14. Botrytis cinerea In” for “a-11. Colletotrichum lindemuthianum In”, “of B. cinerea” for “of C. lindemuthianum”, “inhibit spore” for “inhibit spores”

For the next assay, the system named is Sphaerotheca fuliginea. Put plainly: In vivo preventive test on Sphaerotheca fuliginea (powdery mildew on cucurbits). The settings on record: 500 ppm of active ingredient; preventive spray on gherkin; evaluated 8 days after inoculation. As to the method: a-5. In Vivo Preventive Test on Sphaerotheca fuliginea (Powdery Mildew on Cucurbits) [table] The active ingredients were made soluble and homogenized in a mixture of Dimethyl sulfoxide/Acetone//Tween® 80 and then diluted in water to the desired concentration. The young plants of gherkin were treated by spraying the active ingredient prepared as described above. Control plants were treated only with an aqueous solution of Acetone/Dimethyl sulfoxide/Tween® 80. After 24 hours, the plants were contaminated by spraying the leaves with an aqueous suspension of Sphaerotheca fuliginea spores.

The subject of the next assay is Fusarium graminearum. The format is in vivo. As to conditions: 500 ppm of active ingredient; preventive spray on wheat; evaluated 5 days after inoculation.
The test system of a further assay is Fusarium culmorum. Put plainly: Fusarium culmorum in vitro cell test. The format is cell-based. The settings on record: 96 h, 20 ppm of active ingredient, liquid culture, 4 days incubation, read-out: efficacy (inhibition of fungal growth). The method, then:
a-8. Fusarium culmorum In Vitro Cell Test
Fungicides were solubilized in DMSO and the solution used to prepare the required range of concentrations. The final concentration of DMSO used in the assay was ≤1%.
A spore suspension of F. culmorum was prepared and diluted to the desired spore density.
Fungicides were evaluated for their ability to inhibit spore germination and mycelium growth in liquid culture assay. The compounds were added in the desired concentration to the culture medium with spores. After 4 days incubation, fungi-toxicity of compounds was determined by spectrometric measurement of mycelium growth. Inhibition of fungal growth was determined by comparing the absorbance values in wells containing the fungicides with the absorbance in control wells without fungicides.

Assay [7] concerns Colletotrichum lindemuthianum. Put plainly: In vivo preventive test on Colletotrichum lindemuthianum (leaf spot on bean). The settings on record: 500 ppm of active ingredient; preventive spray on bean; evaluated 7 days after inoculation. As to the method:
a-6. In Vivo Preventive Test on Colletotrichum lindemuthianum (Leaf Spot on Bean) [table] The active ingredients were made soluble and homogenized in a mixture of Dimethyl sulfoxide/Acetone//Tween® 80 and then diluted in water to the desired concentration. The young plants of bean were treated by spraying the active ingredient prepared as described above. Control plants were treated only with an aqueous solution of Acetone/Dimethyl sulfoxide/Tween® 80. After 24 hours, the plants were contaminated by spraying the leaves with an aqueous suspension of Colletotrichum lindemuthianum spores. The contaminated bean plants were incubated for 24 hours at 20° C. and at 100% relative humidity and then for 6 days at 20° C. and at 90% relative humidity.

Another assay deals with Pyricularia Oryzae. Put plainly: microbe, parasite or virus in culture. The format is cell-based. The settings on record: 120 h, read-out: efficacy (inhibition of fungal growth).
The test system of assay [8] is Septoria tritici. Put plainly: Septoria tritici in vitro cell test. The format is cell-based. The settings on record: Zymoseptoria tritici, 168 h; 20 ppm of active ingredient; liquid culture; 7 days incubation; read-out: efficacy (inhibition of fungal growth). As to the method: as §1, with “a-15. Septoria tritici In” for “a-11. Colletotrichum lindemuthianum In”, “of S. tritici” for “of C. lindemuthianum”, “inhibit spore” for “inhibit spores”, “spores. […]” for “spores. After 6 days incubation, fungi-toxicity of compounds was determined by spectrometric measurement of mycelium growth.”

A further assay concerns Alternaria brassicae. As to the kind of experiment: In vivo preventive test on Alternaria brassicae (leaf spot on radish or cabbage). The settings on record: 500 ppm of active ingredient; preventive spray on radish or cabbage; evaluated 3 to 4 days after inoculation. As to the method: a-1. In Vivo Preventive Test on Alternaria brassicae (Leaf Spot on Radish or Cabbage) [table] The active ingredients were made soluble and homogenized in a mixture of Dimethyl sulfoxide/Acetone//Tween® 80 and then diluted in water to the desired concentration. The young plants of radish or cabbage were treated by spraying the active ingredient prepared as described above. Control plants were treated only with an aqueous solution of Acetone/Dimethyl sulfoxide/Tween® 80. After 24 hours, the plants were contaminated by spraying the leaves with an aqueous suspension of Alternaria brassicae spores. The contaminated radish or cabbage plants were incubated for 3 to 4 days at 20° C. and at 100% relative humidity.

The test system of a further assay is Fusarium virguliforme. Put plainly: Fusarium virguliforme in vitro cell test. The format is cell-based. As to conditions: 144 h, 20 ppm of active ingredient, liquid culture, 6 days incubation, read-out: efficacy (inhibition of fungal growth). The method, then: as §1, with “a-13. Fusarium virguliforme In” for “a-11. Colletotrichum lindemuthianum In”, “of F. virguliforme” for “of C. lindemuthianum”, “inhibit spore” for “inhibit spores”

For a further assay, the system named is Alternaria alternata. As to the kind of experiment: Alternaria alternata in vitro cell test. The format is cell-based. As to conditions: 120 h, 20 ppm of active ingredient, liquid culture, 5 days incubation, read-out: efficacy (inhibition of fungal growth). As to the method: as §1, with “a-7. Alternaria alternata In” for “a-11. Colletotrichum lindemuthianum In”, “of A. alternata” for “of C. lindemuthianum”, “inhibit spore” for “inhibit spores”, “After 5” for “After 6”

`Cc1ccc(C[C@H]2CON=C(c3cc(C)nnc3Oc3cccc(Cl)c3F)N2)c(Cl)c1` [compound (I), (5S)-3-[3-(3-chloro-2-fluorophenoxy)-6-methylpyridazin-4-yl]-5-(2-chloro-4-methylbenzyl)-5,6-dihydro-4H-1,2,4-oxadiazine]: the efficacy entry (in the assay on Botrytis cinerea [1]; in the assay on Septoria tritici [3]; in the assay on Pyrenophora teres [4]; in the assay with Sphaerotheca fuliginea; in the assay on Fusarium graminearum; in assay [7]) was “at least 70%” in each case. The efficacy result in the assay on Alternaria brassicae was “at least 70%”. The inhibition at 20 ppm (in [2]; with Ustilago avenae; in the assay with Pyrenophora teres [5]; in the assay on Botrytis cinerea [6]; with Fusarium culmorum; with Pyricularia Oryzae) was ≥ 70% each time. Also, the inhibition at 20 ppm in the assay with Septoria tritici [8], with Fusarium virguliforme and with Alternaria alternata was ≥ 70% each time.

The values are drawn from patent US20250280829A1, “USE OF (5S)-3-[3-(3-CHLORO-2-FLUOROPHENOXY)-6-METHYLPYRIDAZIN-4-YL]-5-(2-CHLORO-4-METHYLBENZYL)-5,6-DIHYDRO-4H-1,2,4-OXADIAZINE FOR CONTROLLING UNWANTED MICROORGANISMS” (Bayer Aktiengesellschaft, priority 2022, published 2025).
